Measurements reported in patent US12258327B2, “5-membered heteroaryl-containing aminopyridine compounds as EGFR inhibitors” (YUHAN CORPORATION, priority 2021, dated 2025).
pIC50: −log10 of the molar value. Like-named read-outs stand apart in the source and are kept apart here.

Experiments:
EGFR del19/T790M/C797S = EGFR del19/T790M/C797S (Homo sapiens, UniProt P00533, C797S/DEL746-750/T790M); test: Biochemical EGFR kinase assay (Lance Ultra TR-FRET), triple mutant del19/T790M/C797S
How it was run: (§1)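 Step 1: compound in kinase buffer, 0.003–10 μM. Step 2: kinase reaction 1 h at room temperature. Step 4: TR-FRET read at 615/665 nm; IC50 calculated.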

EGFR L858R/T790M/C797S = EGFR L858R/T790M/C797S (Homo sapiens, UniProt P00533, C797S/L858R/T790M); test: Biochemical EGFR kinase assay (Lance Ultra TR-FRET), triple mutant L858R/T790M/C797S
EGFR L858R/T790M/C797S, sequence (P00533 25-1210 T790M/C797S/L858R): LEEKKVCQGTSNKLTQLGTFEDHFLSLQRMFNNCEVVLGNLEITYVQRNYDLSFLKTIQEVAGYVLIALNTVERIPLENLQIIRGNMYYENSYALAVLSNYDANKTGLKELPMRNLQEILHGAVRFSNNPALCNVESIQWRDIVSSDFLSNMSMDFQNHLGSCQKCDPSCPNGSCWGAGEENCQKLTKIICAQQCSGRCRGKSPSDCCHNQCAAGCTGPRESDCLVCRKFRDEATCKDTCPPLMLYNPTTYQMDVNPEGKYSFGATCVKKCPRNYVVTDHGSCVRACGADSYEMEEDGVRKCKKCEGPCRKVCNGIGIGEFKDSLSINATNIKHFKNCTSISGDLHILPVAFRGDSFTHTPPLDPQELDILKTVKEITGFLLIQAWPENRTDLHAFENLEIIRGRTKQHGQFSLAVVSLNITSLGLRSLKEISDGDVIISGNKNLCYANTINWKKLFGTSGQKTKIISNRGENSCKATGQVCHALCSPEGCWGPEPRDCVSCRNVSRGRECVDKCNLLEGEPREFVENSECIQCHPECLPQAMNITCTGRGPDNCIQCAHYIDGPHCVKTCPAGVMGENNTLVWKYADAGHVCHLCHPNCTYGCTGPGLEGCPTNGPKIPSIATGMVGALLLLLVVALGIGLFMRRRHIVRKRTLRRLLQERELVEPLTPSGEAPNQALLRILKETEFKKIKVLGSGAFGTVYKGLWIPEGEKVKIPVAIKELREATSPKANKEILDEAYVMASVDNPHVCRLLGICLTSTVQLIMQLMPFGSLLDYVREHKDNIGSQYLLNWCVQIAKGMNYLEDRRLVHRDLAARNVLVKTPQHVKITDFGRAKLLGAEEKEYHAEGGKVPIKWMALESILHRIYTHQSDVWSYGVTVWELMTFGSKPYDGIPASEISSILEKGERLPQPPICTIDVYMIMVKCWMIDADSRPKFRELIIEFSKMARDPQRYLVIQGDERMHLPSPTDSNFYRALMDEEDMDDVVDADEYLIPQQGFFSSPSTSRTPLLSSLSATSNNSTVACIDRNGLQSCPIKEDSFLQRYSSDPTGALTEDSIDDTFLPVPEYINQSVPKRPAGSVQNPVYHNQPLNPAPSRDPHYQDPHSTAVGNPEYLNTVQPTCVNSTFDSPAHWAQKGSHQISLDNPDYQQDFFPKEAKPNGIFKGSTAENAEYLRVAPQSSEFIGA
How it was run: as §1

EGFR del19/C797S = EGFR del19/C797S (Homo sapiens, UniProt P00533, C797S/DEL746-750); test: Biochemical EGFR kinase assay (Lance Ultra TR-FRET), double mutant del19/C797S
EGFR del19/C797S, sequence (P00533 with tags, fused parts or gaps DEL746-750/C797S): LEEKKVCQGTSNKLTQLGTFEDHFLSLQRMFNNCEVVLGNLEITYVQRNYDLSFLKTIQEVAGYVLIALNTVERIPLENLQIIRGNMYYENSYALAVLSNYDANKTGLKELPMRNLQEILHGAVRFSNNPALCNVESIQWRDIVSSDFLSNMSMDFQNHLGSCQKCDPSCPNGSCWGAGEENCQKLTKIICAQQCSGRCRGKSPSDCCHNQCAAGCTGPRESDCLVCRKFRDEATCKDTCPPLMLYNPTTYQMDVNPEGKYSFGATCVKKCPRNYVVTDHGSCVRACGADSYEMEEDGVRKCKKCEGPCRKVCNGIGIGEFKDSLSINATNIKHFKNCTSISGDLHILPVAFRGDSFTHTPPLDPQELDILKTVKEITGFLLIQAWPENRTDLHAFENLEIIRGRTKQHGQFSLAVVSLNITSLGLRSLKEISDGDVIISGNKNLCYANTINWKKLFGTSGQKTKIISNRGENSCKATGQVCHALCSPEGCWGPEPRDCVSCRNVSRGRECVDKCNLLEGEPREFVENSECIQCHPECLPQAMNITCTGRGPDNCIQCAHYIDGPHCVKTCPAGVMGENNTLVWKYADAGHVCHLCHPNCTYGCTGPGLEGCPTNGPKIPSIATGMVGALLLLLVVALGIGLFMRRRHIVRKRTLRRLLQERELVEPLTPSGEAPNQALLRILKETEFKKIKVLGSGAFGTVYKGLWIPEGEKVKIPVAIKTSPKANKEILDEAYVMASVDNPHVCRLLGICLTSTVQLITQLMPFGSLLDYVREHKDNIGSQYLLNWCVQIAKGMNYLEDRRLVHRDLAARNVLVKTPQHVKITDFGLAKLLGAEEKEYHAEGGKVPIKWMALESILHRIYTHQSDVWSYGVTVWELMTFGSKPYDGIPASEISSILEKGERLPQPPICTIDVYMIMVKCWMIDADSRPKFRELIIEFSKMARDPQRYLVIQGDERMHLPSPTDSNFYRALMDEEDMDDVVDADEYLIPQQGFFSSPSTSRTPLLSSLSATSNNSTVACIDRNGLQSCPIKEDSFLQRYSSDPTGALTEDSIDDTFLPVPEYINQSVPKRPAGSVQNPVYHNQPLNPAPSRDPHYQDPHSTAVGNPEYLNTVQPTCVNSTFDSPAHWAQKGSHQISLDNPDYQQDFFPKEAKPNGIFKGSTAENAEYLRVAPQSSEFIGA
How it was run: as §1

EGFR L858R/C797S = EGFR L858R/C797S (Homo sapiens, UniProt P00533, C797S/L858R); test: Biochemical EGFR kinase assay (Lance Ultra TR-FRET), double mutant L858R/C797S
How it was run: as §1

EGFR wildtype (WT) = EGFR wildtype (WT) (Homo sapiens, UniProt P00533); test: Biochemical EGFR kinase assay (Lance Ultra TR-FRET), wildtype
EGFR wildtype (WT), sequence (P00533 25-1210): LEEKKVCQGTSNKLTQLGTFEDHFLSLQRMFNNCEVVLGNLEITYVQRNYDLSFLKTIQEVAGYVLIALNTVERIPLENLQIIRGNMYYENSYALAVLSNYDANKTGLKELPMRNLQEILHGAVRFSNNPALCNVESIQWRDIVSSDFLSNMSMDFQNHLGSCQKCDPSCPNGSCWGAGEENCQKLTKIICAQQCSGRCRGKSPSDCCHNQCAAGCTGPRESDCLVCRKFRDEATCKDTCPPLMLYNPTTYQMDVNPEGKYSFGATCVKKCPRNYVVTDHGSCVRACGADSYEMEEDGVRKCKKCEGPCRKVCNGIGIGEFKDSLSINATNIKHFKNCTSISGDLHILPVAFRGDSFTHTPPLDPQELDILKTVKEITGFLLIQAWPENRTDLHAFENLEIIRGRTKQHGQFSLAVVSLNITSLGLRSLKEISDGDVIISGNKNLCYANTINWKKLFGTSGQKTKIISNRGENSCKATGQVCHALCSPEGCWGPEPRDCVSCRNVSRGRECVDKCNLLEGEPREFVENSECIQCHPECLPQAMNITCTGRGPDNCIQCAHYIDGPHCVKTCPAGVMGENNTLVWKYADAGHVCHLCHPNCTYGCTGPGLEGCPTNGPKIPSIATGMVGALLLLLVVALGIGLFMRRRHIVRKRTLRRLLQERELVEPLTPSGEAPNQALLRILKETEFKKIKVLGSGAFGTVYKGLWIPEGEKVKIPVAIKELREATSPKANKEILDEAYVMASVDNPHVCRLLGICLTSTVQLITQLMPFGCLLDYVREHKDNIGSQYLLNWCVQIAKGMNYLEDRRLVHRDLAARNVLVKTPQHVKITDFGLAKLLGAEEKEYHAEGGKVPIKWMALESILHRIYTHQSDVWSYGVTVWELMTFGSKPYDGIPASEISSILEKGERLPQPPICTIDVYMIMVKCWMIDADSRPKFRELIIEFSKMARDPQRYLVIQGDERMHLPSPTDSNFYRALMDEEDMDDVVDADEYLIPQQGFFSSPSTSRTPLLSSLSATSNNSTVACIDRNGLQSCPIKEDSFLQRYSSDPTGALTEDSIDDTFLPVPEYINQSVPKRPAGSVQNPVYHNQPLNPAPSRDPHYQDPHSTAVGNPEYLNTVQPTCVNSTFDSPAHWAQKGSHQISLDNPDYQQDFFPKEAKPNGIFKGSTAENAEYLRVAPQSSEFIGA
How it was run: as §1

[1] = Km ATP, read-out: IC50 del19/T790M/C797S, Km ATP
[2] = Km ATP, read-out: IC50 L858R/T790M/C797S, Km ATP
[3] = Km ATP, read-out: IC50 del19/C797S, Km ATP
[4] = Km ATP, read-out: IC50 L858R/C797S, Km ATP
[5] = Km ATP, read-out: IC50 WT, Km ATP
[6] = IC50 del19/T790M/C797S, 100 μM ATP
[7] = IC50 L858R/T790M/C797S, 100 μM ATP

EGFR del19/T790M/C797S, sequence (P00533 with tags, fused parts or gaps DEL746-750/T790M/C797S): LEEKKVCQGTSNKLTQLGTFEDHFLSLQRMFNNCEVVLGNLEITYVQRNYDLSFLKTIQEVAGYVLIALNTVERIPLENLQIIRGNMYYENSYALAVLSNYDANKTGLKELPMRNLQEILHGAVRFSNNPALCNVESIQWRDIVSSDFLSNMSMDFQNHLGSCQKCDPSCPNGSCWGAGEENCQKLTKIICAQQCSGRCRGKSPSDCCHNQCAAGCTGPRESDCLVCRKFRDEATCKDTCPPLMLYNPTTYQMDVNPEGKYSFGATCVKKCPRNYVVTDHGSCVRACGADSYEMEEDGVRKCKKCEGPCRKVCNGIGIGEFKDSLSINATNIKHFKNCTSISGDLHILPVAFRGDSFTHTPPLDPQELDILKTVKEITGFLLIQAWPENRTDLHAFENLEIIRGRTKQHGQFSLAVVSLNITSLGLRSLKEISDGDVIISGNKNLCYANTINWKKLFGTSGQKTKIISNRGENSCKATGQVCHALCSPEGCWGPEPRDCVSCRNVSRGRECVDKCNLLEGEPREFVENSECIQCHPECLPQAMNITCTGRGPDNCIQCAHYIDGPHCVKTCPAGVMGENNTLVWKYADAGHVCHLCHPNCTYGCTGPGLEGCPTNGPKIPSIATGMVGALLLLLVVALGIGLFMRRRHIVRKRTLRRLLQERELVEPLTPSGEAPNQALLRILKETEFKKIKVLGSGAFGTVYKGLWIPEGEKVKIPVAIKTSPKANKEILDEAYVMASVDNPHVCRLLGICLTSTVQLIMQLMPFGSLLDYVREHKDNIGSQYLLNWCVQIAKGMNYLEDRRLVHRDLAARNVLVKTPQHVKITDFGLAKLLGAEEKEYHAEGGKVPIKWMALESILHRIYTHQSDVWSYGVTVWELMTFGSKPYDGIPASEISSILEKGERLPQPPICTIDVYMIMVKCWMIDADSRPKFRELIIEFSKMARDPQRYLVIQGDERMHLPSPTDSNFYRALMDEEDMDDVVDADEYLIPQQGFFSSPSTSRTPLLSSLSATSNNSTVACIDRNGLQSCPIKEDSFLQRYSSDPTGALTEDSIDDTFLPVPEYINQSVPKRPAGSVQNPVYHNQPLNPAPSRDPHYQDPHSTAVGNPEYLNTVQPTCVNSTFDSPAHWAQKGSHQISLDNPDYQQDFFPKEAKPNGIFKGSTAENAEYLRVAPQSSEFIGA

| SMILES | pIC50 (EGFR del19/T790M/C797S; [1]) | pIC50 (EGFR L858R/T790M/C797S; [2]) | pIC50 (EGFR del19/C797S; [3]) | pIC50 (EGFR L858R/C797S; [4]) | pIC50 (EGFR wildtype (WT); [5]) | pIC50 (EGFR del19/T790M/C797S; [6]) | pIC50 (EGFR L858R/T790M/C797S; [7]) | pIC50 (EGFR del19/C797S; IC50 del19/C797S, 100 μM ATP) | pIC50 (EGFR L858R/C797S; IC50 L858R/C797S, 100 μM ATP) | pIC50 (EGFR wildtype (WT); IC50 WT, 100 μM ATP) |
| --- | --- | --- | --- | --- | --- | --- | --- | --- | --- | --- |
| O=S(=O)(C1CC1)n1cc(-c2cc(Nc3ncc(-c4ccn(CCC(F)(F)F)n4)c(N[C@H]4CC[C@@H](F)CC4)n3)ccn2)cn1 [Example 367, N^2-(2-(1-(Cyclopropylsulfonyl)-1H-pyrazol-4-yl)pyridin-4-yl)-N^4-((1s,4s)-4-fluorocyclohexyl)-5-(1-(3,3,3-trifluoropropyl)-1H-pyrazol-3-yl)pyrimidine-2,4-diamine] | 7.77 | 8.14 | 6.41 | 6.60 | 5.30 | – | – | – | – | – |
| Cc1nn(CC(F)(F)F)cc1-c1cc(Nc2ncc(-c3ccn(C(F)F)n3)c(N[C@H]3CC[C@@](C)(O)CC3)n2)ccn1 [Example 368, (1s,4s)-4-((5-(1-(Difluoromethyl)-1H-pyrazol-3-yl)-2-((2-(3-methyl-1-(2,2,2-trifluoroethyl)-1H-pyrazol-4-yl)pyridin-4-yl)amino)pyrimidin-4-yl)amino)-1-methylcyclohexan-1-ol] | 8.72 | 9.05 | 7.90 | 7.97 | 7.47 | – | – | – | – | – |
| Cc1nn(CC(F)(F)F)cc1-c1cc(Nc2ncc(-c3cc(C(F)(F)F)n(C)n3)c(N[C@H]3CC[C@@](C)(O)CC3)n2)ccn1 [Example 369, (1s,4s)-1-Methyl-4-((2-((2-(3-methyl-1-(2,2,2-trifluoroethyl)-1H-pyrazol-4-yl)pyridin-4-yl)amino)-5-(1-methyl-5-(trifluoromethyl)-1H-pyrazol-3-yl)pyrimidin-4-yl)amino)cyclohexan-1-ol] | 8.51 | 9.00 | 8.09 | 8.00 | 7.14 | – | – | – | – | – |
| Cc1nn(CC(F)(F)F)cc1-c1cc(Nc2ncc(-c3ccn(CC(F)(F)F)n3)c(N[C@H]3CC[C@@](C)(O)CC3)n2)ccn1 [Example 370, (1s,4s)-1-Methyl-4-((2-((2-(3-methyl-1-(2,2,2-trifluoroethyl)-1H-pyrazol-4-yl)pyridin-4-yl)amino)-5-(1-(2,2,2-trifluoroethyl)-1H-pyrazol-3-yl)pyrimidin-4-yl)amino)cyclohexan-1-ol] | 8.47 | 8.92 | 7.76 | 8.08 | 6.83 | – | – | – | – | – |
| Cn1nc(-c2cnc(Nc3ccnc(-c4cnn(S(=O)(=O)C5CC5)c4)c3)nc2N[C@H]2CC[C@@H](F)CC2)cc1C(F)(F)F [Example 371, N^2-(2-(1-(Cyclopropylsulfonyl)-1H-pyrazol-4-yl)pyridin-4-yl)-N^4-((1s,4s)-4-fluorocyclohexyl)-5-(1-methyl-5-(trifluoromethyl)-1H-pyrazol-3-yl)pyrimidine-2,4-diamine] | 9.05 | 8.74 | 7.41 | 7.04 | 5.70 | – | – | – | – | – |
| C[C@]1(O)CC[C@@H](Nc2cc(Nc3ccnc(-c4cnn(S(=O)(=O)C5CC5)c4)n3)nnc2-c2ccn(C(F)F)n2)CC1 [Example 372, (1s,4s)-4-((6-((2-(1-(Cyclopropylsulfonyl)-1H-pyrazol-4-yl)pyrimidin-4-yl)amino)-3-(1-(difluoromethyl)-1H-pyrazol-3-yl)pyridazin-4-yl)amino)-1-methylcyclohexan-1-ol] | 9.22 | 9.70 | 8.16 | 8.43 | 6.97 | – | – | – | – | – |
| Cn1nc(-c2nnc(Nc3ccnc(-c4cnn(S(=O)(=O)C5CC5)c4)n3)cc2N[C@H]2CC[C@@](C)(O)CC2)cc1C(F)(F)F [Example 373, (1s,4s)-4-((6-((2-(1-(Cyclopropylsulfonyl)-1H-pyrazol-4-yl)pyrimidin-4-yl)amino)-3-(1-methyl-5-(trifluoromethyl)-1H-pyrazol-3-yl)pyridazin-4-yl)amino)-1-methylcyclohexan-1-ol] | 9.30 | 8.52 | 6.18 | 6.65 | 6.15 | – | – | – | – | – |
| C[C@]1(O)CC[C@@H](Nc2cc(Nc3ccnc(-c4cnn(S(=O)(=O)C5CC5)c4)n3)nnc2-c2ccn(CC(F)(F)F)n2)CC1 [Example 374, (1s,4s)-4-((6-((2-(1-(Cyclopropylsulfonyl)-1H-pyrazol-4-yl)pyrimidin-4-yl)amino)-3-(1-(2,2,2-trifluoroethyl)-1H-pyrazol-3-yl)pyridazin-4-yl)amino)-1-methylcyclohexan-1-ol] | 9.52 | 9.22 | 6.62 | 7.59 | 5.98 | – | – | – | – | – |
| Cc1nn(CC(F)(F)F)cc1-c1nccc(Nc2cc(N[C@H]3CC[C@@](C)(O)CC3)c(-c3ccn(C(F)F)n3)nn2)n1 [Example 375, (1s,4s)-4-((3-(1-(Difluoromethyl)-1H-pyrazol-3-yl)-6-((2-(3-methyl-1-(2,2,2-trifluoroethyl)-1H-pyrazol-4-yl)pyrimidin-4-yl)amino)pyridazin-4-yl)amino)-1-methylcyclohexan-1-ol] | 7.79 | 7.95 | 5.94 | 7.29 | 5.64 | – | – | – | – | – |
| C[C@]1(O)CC[C@@H](Nc2cc(Nc3ccnc(-c4cnn(S(=O)(=O)C5CC5)c4)n3)ncc2-n2cccn2)CC1 [Example 376, (1s,4s)-4-((2-((2-(1-(Cyclopropylsulfonyl)-1H-pyrazol-4-yl)pyrimidin-4-yl)amino)-5-(1H-pyrazol-1-yl)pyridin-4-yl)amino)-1-methylcyclohexan-1-ol] | 9.70 | 10.00 | 8.22 | 7.96 | 6.84 | 9.40 | 9.05 | 8.10 | 6.90 | < 5.00 |
| O=S(=O)(C1CC1)n1cc(-c2nccc(Nc3cc(N[C@H]4C[C@@H](CO)C4)c(-c4ccn(C(F)F)n4)cn3)n2)cn1 [Example 377, ((1s,3s)-3-((2-((2-(1-(Cyclopropylsulfonyl)-1H-pyrazol-4-yl)pyrimidin-4-yl)amino)-5-(1-(difluoromethyl)-1H-pyrazol-3-yl)pyridin-4-yl)amino)cyclobutyl)methanol] | 9.70 | 10.00 | 8.38 | 8.24 | 7.01 | 9.40 | 9.15 | 8.24 | 6.76 | < 5.00 |
| C[C@]1(CO)C[C@@H](Nc2cc(Nc3ccnc(-c4cnn(S(=O)(=O)C5CC5)c4)n3)ncc2-c2ccn(C(F)F)n2)C1 [Example 378, ((1s,3s)-3-((2-((2-(1-(Cyclopropylsulfonyl)-1H-pyrazol-4-yl)pyrimidin-4-yl)amino)-5-(1-(difluoromethyl)-1H-pyrazol-3-yl)pyridin-4-yl)amino)-1-methylcyclobutyl)methanol] | 8.92 | 9.52 | 7.78 | 7.84 | 6.59 | 8.77 | 8.51 | 7.62 | 6.29 | < 5.00 |
